In patent US10253002B2, “Compounds and methods of treating infections” (Neoculi Pty Ltd., priority 2013, dated 2019):
Read-outs that look alike come from different tables or passages of the source.

Legend:
Pseudomonas aeruginosa = assay: Broth microdilution MIC, Example 7 (NCL812 and analogues); format: cell-based; conditions: for MIC: Pseudomonas aeruginosa
Salmonella arizonae = assay: Broth microdilution MIC, Example 7; format: cell-based
Method: Minimum inhibitory concentrations (μg/ml) were determined using the broth microdilution method recommended by the Clinical and Laboratory Standards Institute (CLSI). […] Bacterial growth (turbidity) in the wells with antimicrobial was compared with the amount of growth (turbidity) in the growth-control well (containing no antimicrobial). All isolates were tested in duplicate, if there was a difference of greater than one two-fold dilution in the results, the test was repeated a third time. The purity of the isolates was closely monitored during testing by subculturing the prepared bacterial inoculum onto SBA (sheep blood agar). The MICs of the control strains for the antimicrobial ampicillin were determined for each testing run as an internal quality control. The MIC50, […] and MIC range (minimum and maximum) were calculated for each of the bacterial groups.

[1] = system: Staphylococcus pseudintermedius isolates (MSSP and MRSP); assay: MIC (CLSI), Example 6; format: cell-based; conditions: for MIC: Staphylococcus pseudintermedius
Method: Anti-staphylococcal compounds were then tested against all 23 isolates and minimum inhibitory concentrations (MIC) were determined according to standard protocols. After the MICs were determined, the minimum bactericidal concentrations were performed to determine if these compounds are bacteriostatic or bacteriocidal.

MRSA = assay: Broth microdilution MIC, Example 7 (NCL812 and analogues); format: cell-based, Staphylococcus aureus; conditions: for MIC: Staphylococcus aureus, MRSA
Method in brief: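 CLSI broth microdilution against two MRSA and two VRE strains, tested in duplicate with a third run if results differed by more than one two-fold dilution.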

[2] = 23 Staphylococcus pseudintermedius isolates

N=C(N/N=C/c1ccc(Cl)cc1)N/N=C/c1ccc(Cl)cc1 [NCL812, 1,3-bis[(E)-(4-chlorophenyl)methyleneamino]guanidine]
1 to 4 µg/mL: MIC range [1, 2] | MIC range ([1]; Staphylococcus pseudintermedius isolates)
2 µg/mL: MIC50 [1, 2] | MIC ([1]; 23 Staphylococcus pseudintermedius isolates, read-out: MIC mode) | MIC ([1]; Staphylococcus pseudintermedius isolates, read-out: MIC mode) | MIC ([1]; isolate S2P2, read-out: MIC) | MIC ([1]; isolate S3P3, read-out: MIC) | MIC ([1]; isolate S5P5, read-out: MIC) | MIC ([1]; isolate S6P6, read-out: MIC) | MIC ([1]; isolate S7P7, read-out: MIC) | MIC ([1]; isolate S8P8, read-out: MIC) | MIC ([1]; isolate S9P9, read-out: MIC) | MIC ([1]; isolate S10P10, read-out: MIC) | MIC ([1]; isolate S12P12, read-out: MIC) | MIC ([1]; isolate S13P13, read-out: MIC) | MIC ([1]; isolate S14P14, read-out: MIC) | MIC ([1]; isolate S16P16, read-out: MIC) | MIC ([1]; isolate S17P17, read-out: MIC) | MIC ([1]; isolate S21P21, read-out: MIC) | MIC ([1]; isolate S23P23, read-out: MIC) | MIC (μg/ml) at 24 hours, MRSA 2 (MRSA; isolate MRSA 2, 24 hours, 1st and 2nd replicate rows)
> 128 µg/mL: MIC (Pseudomonas aeruginosa; 24 h, read-out: MIC (μg/ml) at 24 hours, P. aeruginosa, 24 hours, 1st and 2nd replicate rows) | MIC (Pseudomonas aeruginosa; P. aeruginosa, 1st, read-out: MIC) | MIC (Pseudomonas aeruginosa; P. aeruginosa, 2nd, read-out: MIC) | MIC (Pseudomonas aeruginosa; read-out: MIC) | MIC (Salmonella arizonae; Salmonella enterica, Salmonella arizonae, read-out: MIC)
8 µg/mL: MIC (MRSA; MRSA 616, Phase I, 1st, read-out: MIC) | MIC (MRSA; MRSA 718, Phase I, 2nd, read-out: MIC) | MIC (MRSA; MRSA 747, Phase I, 1st, read-out: MIC)
>128 µg/mL: MIC (μg/ml) at 24 hours, P. aeruginosa (Pseudomonas aeruginosa; 24 hours, 1st and 2nd replicate rows) | MIC (Salmonella arizonae; S. arizonae, 1st) | MIC (Salmonella arizonae; S. arizonae, 2nd)
3 µg/mL: MIC (MRSA; bioassay ranking, read-out: MRSA)
1 µg/mL: MIC ([1]; isolate S4P4, read-out: MIC)
